Read-outs that look alike come from different tables or passages of the source.
What was measured:
[1] = system: H460 human lung cell line; assay: Cell viability, ATP-LITE assay; type: cell-based; settings: for EC50: Homo sapiens
Procedure: (§1) The activity of the compounds against human cancer cell lines (PC3ML, H460, H1299, RS11846) were assessed by using the ATP-LITE assay (PerkinElmer). All cells were seeded in either F12 or RPMI1640 medium with 5 mM L-glutamine supplemented with 5% fetal bovine serum (Mediatech Inc.), penicillin and streptomycin (Omega). For maintenance, cells were cultured in 5% FBS. Cells plated into 96 well plates at varying initial densities depending on doubling time. H460 and H1299 plated at 2000 cells/well, A549 and PC3 at 3000 cells/well, and RS118456S at 10,000 cells/well. Compounds were diluted to final concentrations with 0.1% DMSO. Prior to dispensing compounds onto cells, fresh 5% media was placed into wells. Administration of compounds occurred 24 hours after seeding into the fresh media. Cell viability was evaluated using ATP-LITE reagent (PerkinElmer) after 72 hours of treatment. Data were normalized to the DMSO control-treated cells using Prism version 5.01 (Graphpad Software).

[2] = system: PC3ML cells; assay: Cell viability, ATP-LITE assay; type: cell-based, human; settings: Homo sapiens, PC3-ML
Procedure: as §1

[3] = system: H1299 cell line; assay: Cell viability, ATP-LITE assay; type: cell-based, human; settings: Homo sapiens
Procedure: as §1

[4] = molecular target: T1, BCL-XL (Homo sapiens, UniProt Q07817); assay: 1D 1H-NMR binding assay; parameters: key to 1D-^1H NMR: +++, Very Active; ++, Active; +, Mild; −, Weak; settings: for 1D-^1H NMR: BCL-XL 25 μM, compound 200 μM
Procedure: By observing the aliphatic region of the spectra, binding could be readily detected due to chemical shift changes in active site methyl groups of Ile, Leu, Thr, Val or Ala (region between −0.8 and 0.3 ppm). All experiments were performed with a 600 MHz spectrometer Bruker Avance 600 equipped with four rf channels and z-axis pulse-field gradients.
Target sequence in this assay (Q07817 whole entry): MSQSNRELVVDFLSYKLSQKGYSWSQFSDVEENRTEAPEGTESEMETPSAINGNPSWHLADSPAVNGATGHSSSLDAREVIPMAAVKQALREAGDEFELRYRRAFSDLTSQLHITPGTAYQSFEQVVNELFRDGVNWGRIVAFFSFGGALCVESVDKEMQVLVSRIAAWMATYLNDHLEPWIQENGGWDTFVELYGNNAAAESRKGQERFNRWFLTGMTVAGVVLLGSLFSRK

[5] = system: B6Bcl-2 transgenic mice; settings: for Tox: Bcl-2 transgenic mouse, single ip injection 72 μmol/kg; for percentage of maximum reduction in spleen weight (maximal biological activity) / spleen weight reduction: single ip 72 μmol/kg; for percentage of maximum reduction in spleen weight (maximal biological activity): maximum shrinkage no more than 50%; for spleen weight reduction: single mouse
Procedure: Transgenic mice expressing BCL-2 have been described as the B6 line. The BCL-2 transgene res a minigene version of a t(14;18) translocation in which the human BCL-2 gene is fused with the immunoglobulin heavy-chain (IgH) locus and associated IgH enhancer. The transgene was propagated on the Balb/c background.
After 24 hours, B6BCL2 mice were sacrificed by intraperitoneal injection of lethal dose of Avertin. Spleen was removed and weighed. […] Spleen tissue was fixed in z-FIX for 3 days and rinsed in PBS, and saved for histological analysis of spleen (H&E staining and TUNEL assay).

[6] = Plasma stability; type: in vitro ADME, rat; settings: Table 6; rat plasma, 1 h
Procedure: Plasma Stability. A 20 μL aliquot of a 10 mM solution in DMSO of the test compound was added to 2.0 mL of heparinized rat plasma (Lampire, P1-150N) to obtain a 100 μM final solution. The mixture was incubated for 1 h at 37.5° C. Aliquots of 100 μL were taken (0, 30 min, 1 h) and diluted with 200 μL of MeOH containing internal standard.

[7] = system: human lymphoma RS11846 cell line; assay: Apoptosis, Annexin V-FITC and propidium iodide assay; type: cell-based; settings: Homo sapiens
[8] = Liver microsomal stability; type: in vitro ADME, rat; settings: Table 6; rat liver microsomes, 1 h
Description: Liver Microsomal Stability.

[9] = system: BP3 human B-cell lymphoma cell line; assay: Annexin V-FITC and propidium iodide assay; type: cell-based; settings: Homo sapiens, B-cell, Table 3, Annexin V-FITC and propidium iodide assay, read-out: EC50 BP3
[10] = molecular target: T2, Bfl-1 (Homo sapiens, UniProt Q16548); assay: Competitive fluorescence polarization assay (FPA); type: binding
T2 sequence (Q16548 1-175): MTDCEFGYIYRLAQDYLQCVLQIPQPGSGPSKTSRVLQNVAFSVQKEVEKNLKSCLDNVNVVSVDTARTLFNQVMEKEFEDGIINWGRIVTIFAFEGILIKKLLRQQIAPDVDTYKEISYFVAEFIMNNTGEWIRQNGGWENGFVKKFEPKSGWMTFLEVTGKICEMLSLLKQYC

[11] = molecular target: Mcl-1 (Homo sapiens, UniProt Q07820); assay: Competitive fluorescence polarization assay (FPA), Bim BH3 peptide; type: binding
[12] = molecular target: T1, BCL-XL; assay: Isothermal titration calorimetry (ITC); type: binding
Procedure: Titrations were performed using a VP-ITC or ITC200 calorimeter from Microcal (Northampton, Mass.). BCL-XL was used at concentrations between 25 and 100 μM in 20 mM sodium phosphate buffer (pH 7.4) and 5-10% DMSO. Titrants were used at concentrations 10-15 fold of that of the protein in the same buffer. Titrations were carried out at 25° C. Data were analyzed using Microcal Origin software provided by the ITC manufacturer (Microcal, Northampton, Mass.).
Target sequence in this assay (Q07817 whole entry): as the sequence (Q07817 whole entry) above

[13] = molecular target: Bcl-2 (Homo sapiens, UniProt P10415); assay: Competitive fluorescence polarization assay (FPA), Bim BH3 peptide; type: binding
[14] = system: Bax/Bak double knockout mouse embryonic fibroblast cells (MEF/DKO); assay: FITC-Annexin V/PI cytotoxicity in Bax/Bak double knockout cells; type: cell-based; settings: 10 μM
Procedure: MEF/WT and MEF/DKO cells were seeded in 24-well plate at a seeding density of half a million per well (in 1 ml of DMEM medium supplemented by 10% FCS). […] On the following day, floating cells were pooled with adherent cells harvested after brief incubation with 0.25% Trypsin/EDTA solution (Gibco/In-Vitrogen Inc.). Cells were centrifuged and supernatant was discarded, and cell pellet was re-suspended with 0.2 ml of Annexin-V binding buffer, followed by addition of 1 μl Annexin-FITC and 1 μl PI (propidium iodide). The percentage of viable cells was determined by a 3-color FACSort instrument and data analyzed by Flow-Jo program, scoring Annexin V-negative, PI-negative as viable cells.

[15] = molecular target: T1, BCL-XL; assay: Competitive fluorescence polarization assay (FPA), Bak BH3 peptide; type: binding; parameters: 100 nM GST-BCL-XL ΔTM protein; settings: read-out: IC50 FPA Bcl-XL
Procedure: For competitive binding assays, 100 nM GST-BCL-XL ΔTM protein was preincubated with the tested compound at varying concentrations in 47.5 μL PBS (pH=7.4) in 96-well black plates at room temperature for 10 min, then 2.5 μL of 100 nM FITC-labeled Bak BH3 peptide was added to produce a final volume of 50 μL. The wild-type and mutant Bak BH3 peptides were included in each assay plate as positive and negative controls, respectively. […] IC50 was determined by fitting the experimental data to a sigmoidal dose-response nonlinear regression model (SigmaPlot 10.0.1, Systat Software, Inc., San Jose, Calif., USA). Data reported are mean of three independent experiments±standard error (SE). […] Fluorescence polarization was measured after 10 min.
Target sequence in this assay (Q07817 1-209 limits assumed): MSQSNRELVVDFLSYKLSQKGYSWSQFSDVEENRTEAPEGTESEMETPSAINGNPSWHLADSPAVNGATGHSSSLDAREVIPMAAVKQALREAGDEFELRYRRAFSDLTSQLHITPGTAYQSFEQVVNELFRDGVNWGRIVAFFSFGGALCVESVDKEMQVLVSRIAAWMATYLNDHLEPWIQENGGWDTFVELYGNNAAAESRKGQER

[16] = system: RS11846 cell line; assay: Cell viability, ATP-LITE assay; type: cell-based; settings: Homo sapiens, read-out: RS11846 EC50 (ATP-LITE assay)
Procedure: as §1

[17] = NCI-H460, Table 3, ATP-LITE assay, read-out: EC50 H460
[18] = Table 3, ATP-LITE assay, heading: EC50 PC3ML, read-out: EC50 PC3ML
[19] = NCI-H1299, heading: EC50 H1299, Table 3, ATP-LITE assay, read-out: EC50 H1299
[20] = Table 3, Annexin V-FITC and propidium iodide assay, heading: EC50 RS11846, read-out: EC50 RS11846

Chain of Bcl-2 (P10415 whole entry): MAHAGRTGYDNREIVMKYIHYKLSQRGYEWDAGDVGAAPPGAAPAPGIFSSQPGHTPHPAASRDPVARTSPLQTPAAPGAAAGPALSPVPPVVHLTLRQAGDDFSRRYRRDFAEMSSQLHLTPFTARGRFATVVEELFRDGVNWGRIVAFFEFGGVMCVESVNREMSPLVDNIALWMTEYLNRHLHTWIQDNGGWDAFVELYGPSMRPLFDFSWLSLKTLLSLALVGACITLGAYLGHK
Chain of Mcl-1 (Q07820 whole entry): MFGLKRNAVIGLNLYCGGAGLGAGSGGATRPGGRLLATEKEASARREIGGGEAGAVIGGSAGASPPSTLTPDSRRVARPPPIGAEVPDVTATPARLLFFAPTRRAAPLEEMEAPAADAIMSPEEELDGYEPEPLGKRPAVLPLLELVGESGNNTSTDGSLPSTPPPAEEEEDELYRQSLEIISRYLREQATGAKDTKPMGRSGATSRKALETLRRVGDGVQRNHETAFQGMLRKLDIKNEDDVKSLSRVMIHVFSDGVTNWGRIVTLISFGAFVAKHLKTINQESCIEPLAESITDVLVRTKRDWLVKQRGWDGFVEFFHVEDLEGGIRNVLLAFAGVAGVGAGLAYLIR

SMILES	Tox [5]	Plasma stability (T = 1 h) [6] [%]	Microsomal Stability (T = 1 h) [8] [%]	EC50 [1, 17] [nM]	EC50 [2, 18] [nM]	EC50 [3, 19] [nM]	1D-^1H NMR ([4]; Table 3)	IC50 [11] [nM]	IC50 [13] [nM]	IC50 [15] [nM]	EC50 [7, 20] [nM]	further results
Cc1cc2c(CC3CCCC3)c(O)c(O)cc2c(O)c1-c1c(C)cc2c(CC3CCCC3)c(O)c(O)cc2c1O [Compound 12c, 5,5′-bis(cyclopentylmethyl)-3,3′-dimethyl-2,2′-binaphthyl-1,1′,6,6′,7,7′-hexaol]	1+	81	75									EC50 ([1]; NCI-H460, ATP-LITE assay, read-out: EC50 H460): 1800 nM; EC50 ([2]; ATP-LITE assay, read-out: EC50 PC3ML): 11200 nM; EC50 ([3]; NCI-H1299, ATP-LITE assay, read-out: EC50 H1299): 10900 nM; 1D-^1H NMR ([4]; Table 4): +; signs of toxicity ([5]; 72 μmol/kg and even 120 μmol/kg): no significant signs of toxicity; EC50 ([7]; Annexin V-FITC and propidium iodide assay, read-out: EC50 RS11846): 4500 nM
Cc1cc2c(C(=O)NC(C)c3ccc(Cl)cc3)c(O)c(O)cc2c(O)c1-c1c(C)cc2c(C(=O)NC(C)c3ccc(Cl)cc3)c(O)c(O)cc2c1O (centres unmarked) [Compound 8k, N^5,N^5′-bis(1-(4-chlorophenyl)ethyl)-1,1′,6,6′,7,7′-hexahydroxy-3,3′-dimethyl-2,2′-binaphthyl-5,5′-dicarboxamide]	4+	94	71	500	5000	3200	+++	230	490	270	5500	EC50 ([9]; heading: EC50 BP3): 1500 nM; IC50 [10]: 400 nM; Kd [12]: 110 nM; percentage of maximum reduction in spleen weight (maximal biological activity) [5]: 85-95%; spleen weight reduction [5]: more than 40%; MEF/DKO cells killed [14]: 20-35%
Cc1cc(C)c(CNC(=O)c2c(O)c(O)cc3c(O)c(-c4c(C)cc5c(C(=O)NCc6c(C)cc(C)cc6C)c(O)c(O)cc5c4O)c(C)cc23)c(C)c1 [Compound 8j, 1,1′,6,6′,7,7′-hexahydroxy-3,3′-dimethyl-N^5,N^5′-bis(2,4,6-trimethylbenzyl)-2,2′-binaphthyl-5,5′-dicarboxamide]							++	1100	700	800		
Cc1cc2c(C(=O)NC3Cc4ccccc4C3)c(O)c(O)cc2c(O)c1-c1c(C)cc2c(C(=O)NC3Cc4ccccc4C3)c(O)c(O)cc2c1O [Compound 8s, N^5,N^5′-bis(2,3-dihydro-1H-inden-2-yl)-1,1′,6,6′,7,7′-hexahydroxy-3,3′-dimethyl-2,2′-binaphthyl-5,5′-dicarboxamide]				940	3000	7100	++	350	700	850	4100	EC50 ([9]; heading: EC50 BP3): 1100 nM; IC50 [10]: 670 nM
Cc1ccc(CC(=O)c2c(O)c(O)cc3c(O)c(-c4c(C)cc5c(C(=O)Cc6ccc(C)cc6)c(O)c(O)cc5c4O)c(C)cc23)cc1 [Compound XII, 1,1′-(1,1′,6,6′,7,7′-hexahydroxy-3,3′-dimethyl-2,2′-binaphthyl-5,5′-diyl)bis(2-p-tolylethanone)]												EC50 ([1]; NCI-H460, read-out: H460 EC50): 820 nM; times more potent than Apogossypol, H460 ([1]; vs Apogossypol): 4-5; EC50 [16]: 2200 nM; EC50 ([2]; read-out: PC3ML EC50, Table 9): 1900 to 4600 nM; EC50 ([3]; NCI-H1299, read-out: H1299 EC50): 1700 nM; 1D ^1H-NMR Binding Assay (BCL-XL) ([4]; Table 9): ++; times more potent than Apogossypol, ITC Bcl-XL ([12]; vs Apogossypol): 40; EC50 ([7]; read-out: RS11846 EC50 (Annexin V- and propidium iodide assay), Table 9): 3000 to 5500 nM
Cc1cc2c(C(=O)NCCc3ccccc3)c(O)c(O)cc2c(O)c1-c1c(C)cc2c(C(=O)NCCc3ccccc3)c(O)c(O)cc2c1O [Compound 8n, 1,1′,6,6′,7,7′-hexahydroxy-3,3′-dimethyl-N^5,N^5′-diphenethyl-2,2′-binaphthyl-5,5′-dicarboxamide]		63	60				++	300	150	800		
Cc1cc2c(C(=O)NCCc3cccc(Cl)c3)c(O)c(O)cc2c(O)c1-c1c(C)cc2c(C(=O)NCCc3cccc(Cl)c3)c(O)c(O)cc2c1O [Compound 8p, N^5,N^5′-bis(3-chlorophenethyl)-1,1′,6,6′,7,7′-hexahydroxy-3,3′-dimethyl-2,2′-binaphthyl-5,5′-dicarboxamide]	4+		90	990	3200	7800	+++	3200	4400	6300	4600	EC50 [9]: 410 nM; percentage of maximum reduction in spleen weight (maximal biological activity) [5]: 85-95%; spleen weight reduction [5]: more than 40%; MEF/DKO cells killed [14]: 20-35%
